The assay concerns the target b-Raf(V600E) (Homo sapiens (Human), UniProt P15056, V600E). Description: Raf/Mek Amplified Luminescence Proximity Homogeneous Assay (Alpha Screen). In kind it is biochemical. The settings on record: b-Raf(V600E) approximately 4 pM; biotinylated Mek, kinase dead approximately 10 nM; ATP 10 μM; pre-incubation 60 minutes; reaction 3 hours at room temperature; read-out: mut-B-RAF IC50. As for the experimental part: Raf/Mek Amplified Luminescence Proximity Homogeneous Assay
Assay buffer: 50 mM Tris, pH 7.5, 15 mM MgCl2, 0.01% Bovine Serum Albumin (BSA), 1 mM dithiothreitol (DTT) Stop buffer: 60 mM ethylenediaminetetraacetic acid (EDTA), 0.01% Tween® 20 Bead buffer: 50 mM Tris, pH 7.5, 0.01% Tween® 20 […]
biotinylated Mek, kinase dead
Alpha Screen detection kit (available from PerkinElmer™, #6760617R)
Anti phospho-MEK1/2 (available from Cell Signaling Technology, Inc. #9121) 384 well assay plates (White Greiner® plates, #781207) […]
biotinylated Mek, Kinase dead approximately 10 nM
Pre-incubation time with compounds 60 minutes at room temperature
Reaction time 1 or 3 hours at room temperature
Raf and biotinylated Mek, kinase dead, were combined at 2× final concentrations in assay buffer (50 mM Tris, pH 7.5, 15 mM MgCl2, 0.01% BSA and 1 mM DTT) and dispensed 10 μl per well in assay plates (Greiner white 384 well assay plates #781207) containing 0.5 μl of 40× of a raf kinase inhibitor test compound diluted in 100% DMSO. The plate was incubated for 60 minutes at room temperature.
The Raf kinase activity reaction was started by the addition of 10 μL per well of 2×ATP diluted in assay buffer. […] Phosphorylated product was measured using a rabbit anti-p-MEK (Cell Signaling, #9121) antibody and the Alpha Screen IgG (ProteinA) detection Kit (PerkinElmer #6760617R), by the addition of 30 μL to the well of a mixture of the antibody (1:2000 dilution) and detection beads (1:2000 dilution of both beads) in bead buffer (50 mM Tris, pH 7.5, 0.01% Tween20). The additions were carried out under dark conditions to protect the detection beads from light. A lid was placed on top of the plate and incubated for 1 hour at room temperature, then the luminescence was read on a PerkinElmer Envision instrument. The concentration of each compound for 50% inhibition (IC50) was calculated by non-linear regression using XL Fit data analysis software.

Sequence of b-Raf(V600E) (P15056 whole entry V600E): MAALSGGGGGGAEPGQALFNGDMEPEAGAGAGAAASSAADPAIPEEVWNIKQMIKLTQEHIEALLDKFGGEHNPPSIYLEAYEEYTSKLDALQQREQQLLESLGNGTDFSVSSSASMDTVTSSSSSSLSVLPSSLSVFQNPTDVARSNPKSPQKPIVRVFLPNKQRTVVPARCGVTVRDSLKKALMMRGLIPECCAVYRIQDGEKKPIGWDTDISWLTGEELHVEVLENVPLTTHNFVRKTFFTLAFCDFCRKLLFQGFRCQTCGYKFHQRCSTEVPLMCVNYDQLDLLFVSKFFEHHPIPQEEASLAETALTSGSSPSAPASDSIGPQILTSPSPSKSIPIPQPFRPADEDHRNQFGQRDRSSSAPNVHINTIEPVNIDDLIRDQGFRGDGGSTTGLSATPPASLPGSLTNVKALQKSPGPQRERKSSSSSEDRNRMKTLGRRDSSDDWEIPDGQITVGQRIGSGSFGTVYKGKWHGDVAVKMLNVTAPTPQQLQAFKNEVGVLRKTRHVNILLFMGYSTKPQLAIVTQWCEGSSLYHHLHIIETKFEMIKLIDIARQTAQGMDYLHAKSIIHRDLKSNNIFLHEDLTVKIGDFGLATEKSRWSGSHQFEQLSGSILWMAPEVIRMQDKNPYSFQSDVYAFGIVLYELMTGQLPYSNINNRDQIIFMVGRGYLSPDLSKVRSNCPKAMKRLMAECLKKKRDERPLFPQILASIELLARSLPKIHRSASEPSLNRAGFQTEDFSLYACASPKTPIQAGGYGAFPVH

As usually defined, the IC50 is the concentration at which inhibition is half-maximal. In the case of `COC(=O)N[C@@H](C)CNc1nccc(-c2[nH]c(C(C)(C)C)nc2-c2cccc(NS(C)(=O)=O)c2)n1` [Example 1R, (S)-Methyl 1-(4-(2-tert-butyl-4-(3-(methylsulfonamido)phenyl)-1H-imidazol-5-yl)pyrimidin-2-ylamino)propan-2-ylcarbamate], the IC50 amounted to 34.5 nM.

Consider `COC(=O)N[C@@H](C)CNc1nccc(-c2[nH]c(C(C)(C)C)nc2-c2cc(Cl)cc(NS(C)(=O)=O)c2F)n1` [Example 1AI, (S)-Methyl 1-(4-(2-tert-butyl-4-(5-chloro-2-fluoro-3-(methylsulfonamido)phenyl)-1H-imidazol-5-yl)pyrimidin-2-ylamino)propan-2-ylcarbamate], for which the IC50 was 0.28 nM.

On to `COC(=O)N[C@@H](C)CNc1nccc(-c2[nH]c(C(C)(C)C)nc2-c2cccc(NS(=O)(=O)C3CC3)c2F)n1` [Example 2B, (S)-Methyl 1-(4-(2-tert-butyl-4-(3-(cyclopropanesulfonamido)-2-fluorophenyl)-1H-imidazol-5-yl)pyrimidin-2-ylamino)propan-2-ylcarbamate], for which the IC50 is 0.27 nM.

For the molecule `CCCS(=O)(=O)Nc1cccc(-c2nc(C3CC3)[nH]c2-c2ccnc(NC[C@H](C)NC(=O)OC)n2)c1Cl` [Example 4A-3, (S)-methyl 1-(4-(4-(2-chloro-3-(propylsulfonamido)phenyl)-2-cyclopropyl-1H-imidazol-5-yl)pyrimidin-2-ylamino)propan-2-ylcarbamate], the IC50 is 0.13 nM.

Take `CCCS(=O)(=O)Nc1cc(Cl)cc(-c2[nH]c(C3CC3)nc2-c2ccnc(NC[C@H](C)NC(=O)OC)n2)c1F` [Example 1W, (S)-Methyl 1-(4-(5-(5-chloro-2-fluoro-3-(propylsulfonamido)phenyl)-2-cyclopropyl-1H-imidazol-4-yl)pyrimidin-2-ylamino)propan-2-ylcarbamate]: the IC50 turned out to be 0.89 nM.

Regarding `COC(=O)N[C@@H](C)CNc1nccc(-c2[nH]c(C(C)(C)C)nc2-c2cc(Cl)cc(NS(=O)(=O)C(C)C)c2)n1` [Example 1J, (S)-Methyl 1-(4-(2-tert-butyl-4-(3-chloro-5-(1-methylethylsulfonamido)phenyl)-1H-imidazol-5-yl)pyrimidin-2-ylamino)propan-2-ylcarbamate], the IC50 is 1.35 nM.

Regarding `CS(=O)(=O)Nc1cccc(-c2nc(C3CC3)[nH]c2-c2ccnc(NCC3(C#N)CC3)n2)c1Cl` [Example 2G, N-(2-Chloro-3-(5-(2-((1-cyanocyclopropyl)methylamino)pyrimidin-4-yl)-2-cyclopropyl-1H-imidazol-4-yl)phenyl)methanesulfonamide], the IC50 worked out at 35 nM.

For the molecule `CNc1nccc(-c2[nH]c(C3CC3)nc2-c2cc(F)cc(NS(=O)(=O)c3c(F)cccc3F)c2Cl)n1` [Example 1BV, N-(2-Chloro-3-(2-cyclopropyl-5-(2-(methylamino)pyrimidin-4-yl)-1H-imidazol-4-yl)-5-fluorophenyl)-2,6-difluorobenzenesulfonamide], the IC50 worked out at 1 nM.

`Nc1nccc(-c2[nH]c(C3CC3)nc2-c2cc(F)cc(NS(=O)(=O)c3c(F)cccc3F)c2Cl)n1` [Example 1BR, N-(3-(5-(2-Aminopyrimidin-4-yl)-2-cyclopropyl-1H-imidazol-4-yl)-2-chloro-5-fluorophenyl)-2,6-difluorobenzenesulfonamide]: the IC50 worked out at 0.19 nM.

Consider `CS(=O)(=O)Nc1cccc(-c2nc(C3CC3)[nH]c2-c2ccnc(NCCC#N)n2)c1F` [Example 2E, N-(3-(5-(2-(2-Cyanoethylamino)pyrimidin-4-yl)-2-cyclopropyl-1H-imidazol-4-yl)-2-fluorophenyl)methanesulfonamide], for which the IC50 stood at 4 nM.

With `CCCS(=O)(=O)Nc1ccc(F)c(-c2nc(C3CC3)[nH]c2-c2ccnc(NC[C@H](C)NC(=O)OC)n2)c1Cl` [Example 1AF, Methyl (2S)-1-(4-(4-(2-chloro-6-fluoro-3-(propylsulfonamido)phenyl)-2-cyclopropyl-1H-imidazol-5-yl)pyrimidin-2-ylamino)propan-2-ylcarbamate], the IC50 was 0.45 nM.

Take `COC(=O)N[C@@H](C)CNc1nccc(-c2[nH]c(C(C)(C)C)nc2-c2cccc(NS(C)(=O)=O)c2F)n1` [Example 2C, (S)-Methyl 1-(4-(2-tert-butyl-4-(2-fluoro-3-(methylsulfonamido)phenyl)-1H-imidazol-5-yl)pyrimidin-2-ylamino)propan-2-ylcarbamate]: the IC50 stood at 0.61 nM.

Turning to `CCCS(=O)(=O)Nc1cc(F)cc(-c2nc(C(C)(C)C)[nH]c2-c2ccnc(NC[C@H](C)NC(=O)OC)n2)c1Cl` [Example 1AH], the IC50 turned out to be 1 nM.

As for `COC(=O)N[C@@H](C)CNc1nccc(-c2[nH]c(C3CC3)nc2-c2cc(Cl)cc(NS(=O)(=O)c3cc(F)cc(F)c3)c2F)n1` [Example 1BM, (S)-Methyl 1-(4-(4-(5-chloro-3-(3,5-difluorophenylsulfonamido)-2-fluorophenyl)-2-cyclopropyl-1H-imidazol-5-yl)pyrimidin-2-ylamino)propan-2-ylcarbamate], the IC50 was 0.37 nM.

In the case of `CCCS(=O)(=O)Nc1cc(Cl)cc(-c2nc(C(C)(C)C)[nH]c2-c2ccnc(N)n2)c1F` [Example 1BH, N-(3-(5-(2-Aminopyrimidin-4-yl)-2-tert-butyl-1H-imidazol-4-yl)-5-chloro-2-fluorophenyl)propane-1-sulfonamide], the IC50 was 0.08 nM.

Consider `CC1(c2nc(-c3cc(Cl)cc(NS(C)(=O)=O)c3F)c(-c3ccnc(NCCC#N)n3)[nH]2)CC1` [Example 1BB, N-(5-Chloro-3-(5-(2-(2-cyanoethylamino)pyrimidin-4-yl)-2-(1-methylcyclopropyl)-1H-imidazol-4-yl)-2-fluorophenyl)methanesulfonamide], for which the IC50 was 0.11 nM.

In the case of `CCCS(=O)(=O)Nc1cccc(-c2nc(C3CC3)[nH]c2-c2ccnc(NCCC(N)=O)n2)c1F` [Example 4H, 3-(4-(2-Cyclopropyl-4-(2-fluoro-3-(propylsulfonamido)phenyl)-1H-imidazol-5-yl)pyrimidin-2-ylamino)propanamide], the IC50 is 2 nM.

As to `COC(=O)N[C@@H](C)CNc1nccc(-c2[nH]c(C(C)(C)C)nc2-c2cccc(NS(=O)(=O)CCC(F)(F)F)c2F)n1` [Example 4E, (S)-Methyl 1-(4-(2-tert-butyl-4-(2-fluoro-3-(3,3,3-trifluoropropylsulfonamido)phenyl)-1H-imidazol-5-yl)pyrimidin-2-ylamino)propan-2-ylcarbamate], the 50% inhibitory concentration (IC50) worked out at 1.08 nM.

Take `CC(C)(C)c1nc(-c2cccc(NS(=O)(=O)c3c(F)cccc3F)c2Cl)c(-c2ccnc(N)n2)[nH]1` [Example 1BK, N-(3-(5-(2-Aminopyrimidin-4-yl)-2-tert-butyl-1H-imidazol-4-yl)-2-chlorophenyl)-2,6-difluorobenzenesulfonamide]: the IC50 was 0.22 nM.

For `Cc1cc(NS(C)(=O)=O)c(Cl)c(-c2nc(C3(C)CC3)[nH]c2-c2ccnc(NCCC#N)n2)c1` [Example 1AZ, N-(2-Chloro-3-(5-(2-(2-cyanoethylamino)pyrimidin-4-yl)-2-(1-methylcyclopropyl)-1H-imidazol-4-yl)-5-methylphenyl)methanesulfonamide], the IC50 amounted to 0.29 nM.

Turning to `CCC(C)S(=O)(=O)Nc1cc(Cl)cc(-c2nc(C(C)(C)C)[nH]c2-c2ccnc(NC[C@H](C)NC(=O)OC)n2)c1` (stereo partly drawn) [Example 1H, Methyl (2S)-1-(4-(2-tert-butyl-4-(3-chloro-5-(1-methylpropylsulfonamido)phenyl)-1H-imidazol-5-yl)pyrimidin-2-ylamino)propan-2-ylcarbamate], the IC50 was 0.5 nM.

`Nc1nccc(-c2[nH]c(C3CC3)nc2-c2cc(Cl)cc(NS(=O)(=O)c3c(F)cccc3F)c2F)n1` [Example 1BF, N-(3-(5-(2-Aminopyrimidin-4-yl)-2-cyclopropyl-1H-imidazol-4-yl)-5-chloro-2-fluorophenyl)-2,6-difluorobenzenesulfonamide]: the IC50 is 0.1 nM.

In the case of `CC(C)(C)c1nc(-c2cc(F)cc(NS(C)(=O)=O)c2Cl)c(-c2ccnc(N)n2)[nH]1` [Example 1BJ, N-(3-(5-(2-Aminopyrimidin-4-yl)-2-tert-butyl-1H-imidazol-4-yl)-2-chloro-5-fluorophenyl)methanesulfonamide], the IC50 amounted to 5 nM.

For the molecule `COC(=O)N[C@@H](C)CNc1nccc(-c2[nH]c(C3CC3)nc2-c2cc(Cl)cc(NS(C)(=O)=O)c2)n1` [Example 1S, (S)-Methyl 1-(4-(4-(3-chloro-5-(methylsulfonamido)phenyl)-2-cyclopropyl-1H-imidazol-5-yl)pyrimidin-2-ylamino)propan-2-ylcarbamate], the IC50 stood at 0.48 nM.
